Test results published in ChEMBL document CHEMBL5647694, “Novel orally bioavailable EZH1/2 dual inhibitors with greater antitumor efficacy than an EZH2 selective inhibitor” (Cancer Sci, 2017).
Calls of active or inactive are those of the source. The calls are words filed in the database; no cut-off is given here.

Assays:
[1] = Toxicity in Crl:CD Sprague-Dawley rat assessed as albumin level in blood at 100 mg/kg, po administered daily for 14 days (reference value: 3.85+/-0.129 g/dL); assay type: organism-based; details: in vivo, 336 h, time 14 day
[2] = Mean AUC (0-24 hrs) in Crl:CD Sprague-Dawley rat at 100 mg/kg, po administered daily for 14 days by LC/MS/MS analysis; assay type: ADME, organism-based; details: in vivo, time 14 day
[3] = Toxicity in Crl:CD Sprague-Dawley rat assessed as platelet count in blood at 100 mg/kg, po administered daily for 14 days (reference value: 1160+/-65.1 10^3/uL); assay type: organism-based; details: in vivo, 336 h, time 14 day
[4] = Toxicity in Crl:CD Sprague-Dawley rat assessed as hemoglobin level in blood at 100 mg/kg, po administered daily for 14 days (reference value: 13.5 +/-0.386 g/dL); assay type: organism-based; details: in vivo, 336 h, time 14 day
[5] = Toxicity in Crl:CD Sprague-Dawley rat assessed as vacuolation of histiocytes in thymus cortex at 100 mg/kg, po administered daily for 14 days by hematoxylin and eosin staining based analysis; assay type: organism-based; details: in vivo, 336 h, time 14 day
KARPAS-422 [6] = test: Antitumor activity against human KARPAS-422 cells xenografted in CB17/Icr-Prkdcscid/CrlCrlj mouse assessed as inhibition of tumor growth at 50 mg/kg, po BID for 14 days; assay type: functional, organism-based; details: time 14.0 day
[7] = Cmax in BALB/c mouse at 6.3 mg/kg administered as single dose; assay type: ADME, organism-based; details: in vivo, route po
SUP-T1 = test: Antitumor activity against human SUP-T1 cells assessed as cell growth inhibition treated for 10 to 15 days; assay type: functional; details: time 10-15 day
[8] = molecular target: Histone-lysine N-methyltransferase NSD2 (Homo sapiens, UniProt O96028); test: Inhibition of human NSD2 using Nucleosomes and [3H]SAM as substrate incubated for 30 mins to 1 hr by HotSpot kinase assay
JM1 = test: Antitumor activity against human JM1 cells assessed as cell growth inhibition treated for 10 to 15 days; assay type: functional; details: time 10-15 day
CW-2 = test: Antitumor activity against human CW-2 cells assessed as cell growth inhibition treated for 10 to 15 days; assay type: functional; details: time 10-15 day
HCC1954 = test: Antitumor activity against human HCC1954 cells assessed as cell growth inhibition treated for 10 to 15 days; assay type: functional; details: time 10-15 day
DU-4475 = test: Antitumor activity against human DU-4475 cells assessed as cell growth inhibition treated for 10 to 15 days; assay type: functional; details: time 10-15 day
DU-145 = test: Antitumor activity against human DU-145 cells assessed as cell growth inhibition treated for 10 to 15 days; assay type: functional; details: time 10-15 day
BT-474 = test: Antitumor activity against human BT-474 cells assessed as cell growth inhibition treated for 10 to 15 days; assay type: functional; details: time 10-15 day
[9] = Antitumor activity against human NCI-H1781 cells assessed as cell growth inhibition treated for 10 to 15 days; assay type: functional; details: time 10-15 day
[10] = Antitumor activity against human COV362 cells assessed as cell growth inhibition treated for 10 to 15 days; assay type: functional; details: time 10-15 day
MDA-MB-157 = test: Antitumor activity against human MDA-MB-157 cells assessed as cell growth inhibition treated for 10 to 15 days; assay type: functional; details: time 10-15 day
KARPAS-422 [11] = test: Antitumor activity against human KARPAS-422 cells assessed as cell growth inhibition treated for 10 to 15 days; assay type: functional; details: time 10-15 day
Pfeiffer = test: Antitumor activity against human Pfeiffer cells assessed as cell growth inhibition treated for 10 to 15 days; assay type: functional; details: time 10-15 day
[12] = Antitumor activity against human COV434 cells assessed as cell growth inhibition treated for 10 to 15 days; assay type: functional; details: time 10-15 day
[13] = molecular target: Histone-lysine N-methyltransferase EHMT1 (Homo sapiens, UniProt Q9H9B1); test: Inhibition of human GLP using Histone H3 (1-21 residues) and [3H]SAM as substrate incubated for 30 mins to 1 hr by HotSpot kinase assay
HCT-116 = test: Antitumor activity against human HCT-116 cells assessed as cell growth inhibition treated for 10 to 15 days; assay type: functional; details: time 10-15 day
TGBC11TKB = test: Antitumor activity against human TGBC11TKB cells assessed as cell growth inhibition treated for 10 to 15 days; assay type: functional; details: time 10-15 day
MX1 = test: Antitumor activity against human MX1 cells assessed as cell growth inhibition treated for 10 to 15 days; assay type: functional; details: time 10-15 day
[14] = Antitumor activity against human NCI-H660 cells assessed as cell growth inhibition treated for 10 to 15 days; assay type: functional; details: time 10-15 day
[15] = Antitumor activity against human COV644 cells assessed as cell growth inhibition treated for 10 to 15 days; assay type: functional; details: time 10-15 day
LOUCY = test: Antitumor activity against human LOUCY cells assessed as cell growth inhibition treated for 10 to 15 days; assay type: functional; details: time 10-15 day
SNU-449 = test: Antitumor activity against human SNU-449 cells assessed as cell growth inhibition treated for 10 to 15 days; assay type: functional; details: time 10-15 day
MC116 = test: Antitumor activity against human MC116 cells assessed as cell growth inhibition treated for 10 to 15 days; assay type: functional; details: time 10-15 day
MDA-MB-468 = test: Antitumor activity against human MDA-MB-468 cells assessed as cell growth inhibition treated for 10 to 15 days; assay type: functional; details: time 10-15 day
[16] = molecular target: Histone-lysine N-methyltransferase, H3 lysine-79 specific (Homo sapiens, UniProt Q8TEK3); test: Inhibition of human DOT1L using Nucleosomes and [3H]SAM as substrate incubated for 30 mins to 1 hr by HotSpot kinase assay
Chain of Histone-lysine N-methyltransferase, H3 lysine-79 specific (Q8TEK3 whole entry): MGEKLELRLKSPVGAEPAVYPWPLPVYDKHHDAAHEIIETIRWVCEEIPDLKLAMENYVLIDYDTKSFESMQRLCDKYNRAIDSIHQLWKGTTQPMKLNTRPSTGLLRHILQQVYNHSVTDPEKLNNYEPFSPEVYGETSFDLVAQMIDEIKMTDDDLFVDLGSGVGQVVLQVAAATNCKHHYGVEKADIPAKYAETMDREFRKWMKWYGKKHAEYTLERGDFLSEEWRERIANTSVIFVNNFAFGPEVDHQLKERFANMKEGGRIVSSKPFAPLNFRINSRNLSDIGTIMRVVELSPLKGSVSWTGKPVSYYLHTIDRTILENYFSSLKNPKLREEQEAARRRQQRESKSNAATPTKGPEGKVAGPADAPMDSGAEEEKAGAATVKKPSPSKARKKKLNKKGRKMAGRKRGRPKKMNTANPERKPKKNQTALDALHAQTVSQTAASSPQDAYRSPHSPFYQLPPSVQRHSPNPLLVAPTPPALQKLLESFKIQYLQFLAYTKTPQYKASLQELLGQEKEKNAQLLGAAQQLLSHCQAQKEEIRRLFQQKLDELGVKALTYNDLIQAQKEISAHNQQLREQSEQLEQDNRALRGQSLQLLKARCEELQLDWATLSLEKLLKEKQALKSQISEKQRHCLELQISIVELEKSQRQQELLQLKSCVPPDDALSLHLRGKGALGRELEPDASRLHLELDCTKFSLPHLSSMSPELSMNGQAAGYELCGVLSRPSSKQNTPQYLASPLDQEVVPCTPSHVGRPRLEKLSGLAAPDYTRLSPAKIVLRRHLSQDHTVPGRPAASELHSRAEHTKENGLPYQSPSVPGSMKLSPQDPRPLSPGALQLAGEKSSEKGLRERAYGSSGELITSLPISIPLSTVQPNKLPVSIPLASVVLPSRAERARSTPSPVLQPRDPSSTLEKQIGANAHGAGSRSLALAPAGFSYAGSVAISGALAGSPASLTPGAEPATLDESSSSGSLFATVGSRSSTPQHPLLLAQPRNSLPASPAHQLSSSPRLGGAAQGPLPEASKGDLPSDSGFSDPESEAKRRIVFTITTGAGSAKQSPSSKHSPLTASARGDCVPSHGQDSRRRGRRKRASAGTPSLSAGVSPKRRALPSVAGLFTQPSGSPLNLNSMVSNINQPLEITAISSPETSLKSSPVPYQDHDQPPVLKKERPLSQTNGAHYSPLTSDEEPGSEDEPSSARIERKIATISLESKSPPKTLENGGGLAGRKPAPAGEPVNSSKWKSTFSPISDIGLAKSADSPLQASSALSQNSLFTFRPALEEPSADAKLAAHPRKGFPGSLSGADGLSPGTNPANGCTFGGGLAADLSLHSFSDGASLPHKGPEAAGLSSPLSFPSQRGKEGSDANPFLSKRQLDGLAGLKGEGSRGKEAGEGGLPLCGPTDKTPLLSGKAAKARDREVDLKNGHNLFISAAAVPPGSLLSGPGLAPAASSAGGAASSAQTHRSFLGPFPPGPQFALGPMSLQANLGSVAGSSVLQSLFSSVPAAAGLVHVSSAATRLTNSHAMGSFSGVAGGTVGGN

Chain of Histone-lysine N-methyltransferase NSD2 (O96028 whole entry): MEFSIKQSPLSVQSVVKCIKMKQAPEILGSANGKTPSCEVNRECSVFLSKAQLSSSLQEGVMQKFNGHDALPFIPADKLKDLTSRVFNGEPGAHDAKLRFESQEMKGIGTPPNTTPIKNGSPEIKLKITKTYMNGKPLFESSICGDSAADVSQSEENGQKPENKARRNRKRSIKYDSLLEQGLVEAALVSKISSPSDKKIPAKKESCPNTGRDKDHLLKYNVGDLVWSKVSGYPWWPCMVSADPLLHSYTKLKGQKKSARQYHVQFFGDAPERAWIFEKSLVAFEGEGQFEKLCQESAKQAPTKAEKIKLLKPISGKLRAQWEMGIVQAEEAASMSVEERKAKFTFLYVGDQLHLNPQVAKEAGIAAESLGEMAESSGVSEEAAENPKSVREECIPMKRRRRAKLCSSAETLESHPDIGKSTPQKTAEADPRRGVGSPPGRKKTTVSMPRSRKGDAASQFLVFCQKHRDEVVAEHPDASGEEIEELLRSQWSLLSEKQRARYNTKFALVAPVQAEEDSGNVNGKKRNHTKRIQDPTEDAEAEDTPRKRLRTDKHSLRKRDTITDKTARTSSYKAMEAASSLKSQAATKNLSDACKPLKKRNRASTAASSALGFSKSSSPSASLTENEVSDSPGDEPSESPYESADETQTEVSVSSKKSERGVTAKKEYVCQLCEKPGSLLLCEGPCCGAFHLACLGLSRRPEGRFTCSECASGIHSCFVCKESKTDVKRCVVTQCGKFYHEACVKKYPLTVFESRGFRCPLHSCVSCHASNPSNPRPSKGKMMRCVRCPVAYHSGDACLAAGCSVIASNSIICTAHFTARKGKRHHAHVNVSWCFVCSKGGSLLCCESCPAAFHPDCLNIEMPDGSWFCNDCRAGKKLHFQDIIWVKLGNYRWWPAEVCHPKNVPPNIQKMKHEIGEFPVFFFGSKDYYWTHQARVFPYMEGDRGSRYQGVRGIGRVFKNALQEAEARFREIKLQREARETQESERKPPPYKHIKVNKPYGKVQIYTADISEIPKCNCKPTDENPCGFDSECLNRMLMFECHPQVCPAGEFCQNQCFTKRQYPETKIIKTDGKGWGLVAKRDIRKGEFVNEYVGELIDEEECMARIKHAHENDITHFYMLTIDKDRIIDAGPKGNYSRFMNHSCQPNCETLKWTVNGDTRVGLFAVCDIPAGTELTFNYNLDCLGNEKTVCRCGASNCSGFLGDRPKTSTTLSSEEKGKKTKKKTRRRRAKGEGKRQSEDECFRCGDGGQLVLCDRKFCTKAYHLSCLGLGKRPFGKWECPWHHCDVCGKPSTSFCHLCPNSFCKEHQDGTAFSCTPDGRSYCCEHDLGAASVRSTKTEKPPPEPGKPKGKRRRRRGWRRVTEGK
Chain of Histone-lysine N-methyltransferase EHMT1 (Q9H9B1 whole entry, the tested form may be a part): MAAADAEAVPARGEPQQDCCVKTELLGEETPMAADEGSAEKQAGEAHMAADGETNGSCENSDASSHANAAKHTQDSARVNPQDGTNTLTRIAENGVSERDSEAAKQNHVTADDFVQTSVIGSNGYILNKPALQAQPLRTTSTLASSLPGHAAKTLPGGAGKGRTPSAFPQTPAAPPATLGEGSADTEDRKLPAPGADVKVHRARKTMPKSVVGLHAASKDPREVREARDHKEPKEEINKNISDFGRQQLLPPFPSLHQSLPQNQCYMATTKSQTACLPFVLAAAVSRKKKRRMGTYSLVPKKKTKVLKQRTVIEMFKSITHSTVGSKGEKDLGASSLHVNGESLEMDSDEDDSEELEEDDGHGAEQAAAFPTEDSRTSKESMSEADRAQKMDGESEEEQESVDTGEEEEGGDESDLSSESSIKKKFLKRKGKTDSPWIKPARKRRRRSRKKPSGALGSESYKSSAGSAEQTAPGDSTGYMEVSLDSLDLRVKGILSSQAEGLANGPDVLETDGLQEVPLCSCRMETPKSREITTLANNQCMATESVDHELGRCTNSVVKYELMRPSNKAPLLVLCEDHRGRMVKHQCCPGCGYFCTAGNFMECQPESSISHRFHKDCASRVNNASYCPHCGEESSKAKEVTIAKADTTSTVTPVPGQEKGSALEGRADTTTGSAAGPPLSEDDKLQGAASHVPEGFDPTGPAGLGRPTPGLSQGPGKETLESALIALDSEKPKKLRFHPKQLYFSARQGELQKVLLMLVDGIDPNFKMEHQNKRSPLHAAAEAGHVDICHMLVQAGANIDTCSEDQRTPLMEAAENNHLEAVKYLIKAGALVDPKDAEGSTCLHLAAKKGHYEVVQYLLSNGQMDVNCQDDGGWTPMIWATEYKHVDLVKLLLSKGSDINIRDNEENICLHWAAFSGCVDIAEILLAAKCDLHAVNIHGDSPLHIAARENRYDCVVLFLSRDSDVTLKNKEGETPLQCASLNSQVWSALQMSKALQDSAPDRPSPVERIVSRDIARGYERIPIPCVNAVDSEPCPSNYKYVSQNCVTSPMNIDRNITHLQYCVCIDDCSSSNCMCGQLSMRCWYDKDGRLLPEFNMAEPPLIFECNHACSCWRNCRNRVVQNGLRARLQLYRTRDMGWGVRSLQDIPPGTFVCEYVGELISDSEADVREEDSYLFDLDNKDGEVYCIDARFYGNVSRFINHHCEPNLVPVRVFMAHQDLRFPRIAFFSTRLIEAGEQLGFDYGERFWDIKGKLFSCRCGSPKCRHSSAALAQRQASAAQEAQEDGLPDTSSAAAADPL

In the case of `Cc1cc(C)c(CNC(=O)c2cc(Br)c3c(c2C)O[C@@](C)([C@H]2CC[C@H](N(C)C)CC2)O3)c(=O)[nH]1`, the Activity [1] is reported as 3.75 g/dL, the AUC at 336 h [2] is reported as 27.9 µM·h and the Activity [3] is reported as 1120 10^3 /uL. The Activity [4] was 13 g/dL, the Activity [5] was “Toxic” and the Activity (KARPAS-422 [6]) was “Active”. For the same molecule, the Cmax [7] was 450 nM.
For `Cc1cc(C)c(CNC(=O)c2cc(Cl)c3c(c2C)O[C@@](C)([C@H]2CC[C@H](N(C)C)CC2)O3)c(=O)[nH]1` [VALEMETOSTAT], the GI50 (SUP-T1) was over 1000 nM, the IC50 [8] was 100 µM and the GI50 (JM1) was over 1000 nM. It also gave a GI50 (CW-2) of over 1000 nM, a GI50 (HCC1954) of over 1000 nM and a GI50 (DU-4475) of over 1000 nM. The GI50 (DU-145) was over 1000 nM, the GI50 (BT-474) was over 1000 nM and the GI50 [9] was over 1000 nM. For the same molecule, the GI50 [10] was over 1000 nM, the GI50 (MDA-MB-157) was over 1000 nM and the GI50 (KARPAS-422 [11]) was 1.56 nM. For the same molecule, the GI50 (Pfeiffer) was 0.107 nM, the GI50 [12] was 1.5 nM and the IC50 [13] was 100 µM. It also gave a GI50 (HCT-116) of over 1000 nM, a GI50 (TGBC11TKB) of 86.7 nM and a GI50 (MX1) of over 1000 nM. The GI50 [14] was over 1000 nM, the GI50 [15] was over 1000 nM and the GI50 (LOUCY) was over 1000 nM. The GI50 (SNU-449) was over 1000 nM, the GI50 (MC116) was 50.4 nM and the GI50 (MDA-MB-468) was over 1000 nM. The IC50 [16] was 100 µM.
